Data as given in the supplement of paper PMC8967900.

Experiments:
Assay in all cases: selective drug sensitivity score (sDSS, relative to normal bone marrow) (sDSS (score)); higher = more potent and effective on the cell line relative to normal bone marrow cells
Conditions in all cases: 72 h
[1] = test system: MHH-CALL-4
[2] = test system: PEER
[3] = test system: RCH-ACV
[4] = test system: COG-LL-319h
[5] = test system: LC4-1
[6] = test system: NALM-6
[7] = test system: TANOUE
[8] = test system: KASUMI-9
[9] = test system: SEM cells
[10] = test system: MOLT-4
[11] = test system: ALL-PO
[12] = test system: NALL-1
[13] = test system: KASUMI-2
[14] = test system: KASUMI-10
[15] = test system: MOLT-16
[16] = test system: 697
[17] = test system: TMD5
[18] = test system: SUP-B15
[19] = test system: KOPN-8
[20] = test system: CCRF-HSB2
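Further: ALL cell lines in 384-well plates, five doses spanning 10,000-fold, each plate scaled between vehicle and 100 µmol/L benzalkonium chloride controls, sDSS an adapted area-under-curve metric.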

Compound | selective drug sensitivity score [1] | selective drug sensitivity score [2] | selective drug sensitivity score [3] | selective drug sensitivity score [4] | selective drug sensitivity score [5] | selective drug sensitivity score [6] | selective drug sensitivity score [7] | selective drug sensitivity score [8] | selective drug sensitivity score [9] | selective drug sensitivity score [10] | selective drug sensitivity score [11] | selective drug sensitivity score [12] | selective drug sensitivity score [13] | selective drug sensitivity score [14] | selective drug sensitivity score [15] | selective drug sensitivity score [16] | selective drug sensitivity score [17] | selective drug sensitivity score [18] | selective drug sensitivity score [19] | selective drug sensitivity score [20]
C=C1C[C@@H]2CC[C@@]34C[C@H]5O[C@H]6[C@@H](O3)[C@H]3O[C@H](CC[C@@H]3O[C@H]6[C@H]5O4)CC(=O)C[C@@H]3[C@@H](OC)[C@@H](C[C@H](O)CN)O[C@H]3C[C@H]3O[C@@H](CC[C@@H]1O2)C[C@@H](C)C3=C [Eribulin] (top concentration 1000 nM) | 5.6 | 23.6 | 25.4 | 14.8 | 24 | 16 | -8.6 | 24 | 22.1 | 23.3 | 16.3 | 15.8 | 15.5 | 20.2 | 28.6 | 19.5 | 12.5 | 25.7 | 27 | 22.8
COc1cc2c(cc1OCCCN1CCCC1)N=C(N)C21CCC1 [A-366] (top concentration 25000 nM) | -0.34 | 1.46 | 0.06 | 3.16 | -1.24 | -1.84 | -1.84 | 2.36 | 0.46 | 1.36 | 1.76 | -1.84 | -1.84 | 1.46 | 3.46 | -1.34 | -1.84 | -1.14 | -0.64 | 0.16
Cc1c(F)cc(C(=O)NC2CC2)cc1-c1ccc(C(=O)NCC(C)(C)C)cn1 [Losmapimod] (top concentration 10000 nM) | -0.18 | -0.08 | 11.5 | -0.18 | 3.32 | 0.82 | 1.32 | 6.92 | -0.18 | -0.18 | -0.18 | -0.18 | -0.18 | -0.18 | 0.12 | 2.72 | -0.18 | 0.42 | 4.42 | -0.08
COc1cc(N2CCC(N3CCN(C)CC3)CC2)ccc1Nc1ncnc(Nc2ccccc2S(=O)(=O)C(C)C)n1 [ASP3026] (top concentration 10000 nM) | -3.94 | -0.24 | -0.74 | -4.04 | -0.44 | 1.86 | -2.64 | -0.84 | 1.66 | -0.14 | 5.36 | -2.64 | -4.04 | 2.86 | -1.54 | -0.84 | -1.84 | 1.16 | -2.64 | 5.06
CCC(C)(C)C(=O)O[C@H]1C[C@@H](C)C=C2C=C[C@H](C)[C@H](CC[C@@H]3C[C@@H](O)CC(=O)O3)[C@H]21 [Simvastatin] (top concentration 10000 nM) | 2.58 | 1.48 | 2.18 | 0.68 | 2.18 | 0.08 | -0.72 | 4.18 | 1.58 | -0.72 | -0.72 | 3.48 | -0.72 | -0.72 | 2.18 | -0.22 | 5.78 | -0.72 | 4.48 | 0.08
NC(=S)N/N=C/c1ncccc1N [Triapine] (top concentration 10000 nM) | 2.18 | 2.08 | 7.38 | 10.6 | 1.78 | 4.48 | -1.32 | 3.98 | 2.18 | 1.98 | 2.28 | 3.48 | 2.38 | 6.88 | 4.68 | 5.88 | 2.28 | 2.48 | 1.78 | 8.48
N#Cc1ccnc(N2C(=O)CC[C@H]2C(=O)N(c2cncc(F)c2)[C@H](C(=O)NC2CC(F)(F)C2)c2ccccc2Cl)c1 [Ivosidenib] (top concentration 10000 nM) | 0 | 0.6 | 0 | 0 | 0 | 0 | 0 | 0.9 | 0 | 0.2 | 0 | 0 | 0.6 | 0 | 1 | 0.1 | 1.8 | 0 | 0.2 | 1.6
COc1cc2c(N3CCN(C(=O)Nc4ccc(OC(C)C)cc4)CC3)ncnc2cc1OCCCN1CCCCC1 [Tandutinib] (top concentration 1000 nM) | 0 | 0 | 0 | 0 | 0 | 0 | 0 | 0 | 4.2 | 0 | 3.1 | 0 | 0 | 4.5 | 0 | 0 | 0 | 0.5 | 0 | 0
CNC(=O)c1ccc(-c2cnc3ncc(Cc4ccc5ncccc5c4)n3n2)cc1F [Capmatinib] (top concentration 1000 nM) | -0.06 | -0.06 | -0.06 | 14.9 | 0.64 | 0.24 | 0.44 | -0.06 | -0.06 | -0.06 | -0.06 | -0.06 | -0.06 | -0.06 | 0.04 | -0.06 | -0.06 | -0.06 | -0.06 | -0.06
CC(C)Cn1cnc2c(N)nc3ccccc3c21 [Imiquimod] (top concentration 2500 nM) | 0.9 | 0 | 1.7 | 0 | 0.3 | 0.4 | 0.1 | 0.9 | 0 | 0 | 0.4 | 0 | 1.5 | 0 | 0.5 | 0.4 | 4.4 | 0.3 | 2.7 | 0.4
C[C@]12CC[C@@H]3c4ccc(O)cc4C[C@@H](CCCCCCCCC[S+]([O-])CCCC(F)(F)C(F)(F)F)[C@H]3[C@@H]1CC[C@@H]2O (stereo not given in full) [Fulvestrant] (top concentration 1000 nM) | 0 | 0 | 0 | 0 | 0 | 0 | 0 | 0 | 0 | 0 | 2.3 | 1.6 | 0 | 0 | 0 | 0 | 2.3 | 0 | 0 | 0
CC#CC(=O)N1CCC[C@H]1c1nc(-c2ccc(C(=O)Nc3ccccn3)cc2)c2c(N)nccn12 [Acalabrutinib] (top concentration 1000 nM) | 7.4 | -0.1 | 1.8 | 0 | -0.1 | -0.1 | -0.1 | 1.2 | 3.2 | -0.1 | -0.1 | -0.1 | -0.1 | 1.8 | -0.1 | 0.8 | 5.9 | 3.7 | -0.1 | -0.1
O=c1[nH]cc(F)c(=O)[nH]1 [Fluorouracil] (top concentration 10000 nM) | -0.14 | -0.64 | 2.96 | 6.56 | 5.16 | 1.86 | -0.64 | 3.26 | 2.76 | 2.76 | 8.56 | -0.24 | 1.56 | 2.96 | 6.36 | 3.46 | -0.64 | 3.46 | 2.96 | -0.64
CC(C)(O)CC(=O)NCCn1ccc2ncnc(Nc3ccc(Oc4cccc(C(F)(F)F)c4)c(Cl)c3)c21 [TAK-285] (top concentration 2500 nM) | 0 | 0 | 0 | 0 | 0 | 0 | 0 | 3.3 | 0 | 0 | 0 | 0.1 | 0 | 0 | 0 | 0 | 3.1 | 0 | 0 | 0
CC[C@]12C=CCN3CC[C@@]4(c5cc([C@@]6(C(=O)OC)C[C@@H]7C[C@@H](C(C)(F)F)CN(Cc8c6[nH]c6ccccc86)C7)c(OC)cc5N(C)[C@H]4[C@@](O)(C(=O)OC)[C@@H]1OC(C)=O)[C@@H]32 [Vinflunine] (top concentration 1000 nM) | 0.58 | 5.08 | 3.98 | 2.98 | 4.48 | 5.18 | -1.32 | 6.78 | 6.28 | 3.48 | 1.68 | 2.98 | 5.68 | 4.08 | 3.98 | 4.68 | 0.28 | 3.48 | 7.08 | 4.48
Cn1cc(C[C@@H](N)C(=O)O)c2ccccc21 [1-methyl-D-tryptophan] (top concentration 5000 nM) | -0.62 | -0.62 | -0.62 | -0.62 | -0.62 | -0.62 | -0.62 | -0.62 | -0.32 | -0.62 | -0.62 | -0.62 | 0.38 | -0.62 | -0.62 | -0.62 | -0.62 | -0.62 | 1.18 | -0.62
Cc1cc(-c2ncc(CC(=O)Nc3ccc(-c4cnccn4)cn3)cc2C)ccn1 [NVP-LGK974] (top concentration 10000 nM) | 3.5 | 6.9 | 5.6 | -1.3 | 1.2 | 3.7 | 5.7 | 0.1 | 2.2 | 3.9 | 3.4 | 1.5 | 1 | 0.8 | 4.9 | 5.6 | 3.4 | 3.9 | 2.6 | 0.5
N#CC(c1ccnc(OCc2ccc(CN3CCOCC3)cc2)n1)c1nc2ccccc2s1 (stereo not given) [Bentamapimod] (top concentration 10000 nM) | -0.46 | 5.64 | 4.44 | -0.06 | 2.34 | 2.44 | 0.84 | 6.24 | 3.24 | 1.74 | 6.24 | 1.14 | -0.46 | -0.46 | 4.04 | 5.14 | 0.74 | 2.34 | 5.64 | 4.04
